Like-named read-outs stand apart in the source and are kept apart here.
Test system: patient experiencing an allergic emergency (symptoms of anaphylaxis)
Protocol: A patient experiencing an allergic emergency initiates treatment at the onset of shortness of breath by self administering 40 mg of epinephrine free base in a buccal dosage form.
A patient experiencing an allergic emergency initiates treatment at the onset of shortness of breath by self administering 40 mg of epinephrine free base in a buccal dosage form. […] After another approximately 5 minutes pass without amelioration of the symptoms of anaphylaxis, the patient self administers a third buccal dosage form comprising 20 mg of epinephrine free base.
A patient experiencing an allergic emergency initiates treatment at the onset of shortness of breath by self administering 40 mg of epinephrine free base in a lingual dosage form. After approximately 5 minutes pass without amelioration of the symptoms of anaphylaxis, the patient self administers a second lingual dosage form comprising 40 mg of epinephrine free base. After another approximately 5 minutes pass without amelioration of the symptoms of anaphylaxis, the patient self administers a third lingual dosage form comprising 20 mg of epinephrine free base.

Measured: patient's symptoms of anaphylaxis

CNC[C@H](O)c1ccc(O)c(O)c1 [epinephrine free base, epinephrine]
relieved: Example 1: buccal dosage form, 40 mg then second 40 mg after approx. 5 minutes, outcome within about five minutes after the second dose | Example 2: buccal dosage form, 40 mg, then 20 mg at approx. 5 minute intervals, outcome within about five minutes after the third dose | Example 3: lingual dosage form, 40 mg, then 20 mg at approx. 5 minute intervals, outcome within about five minutes after the third dose

Reference: patent publication US20070293581A1, “Methods for Buccal, Lingual or Sublingual Dosing Regimens of Epinephrine for the Treatment of Allergic Emergencies” (priority 2006, published 2007)
